Values of other authors as cited in EP3744320A1, “PHAR[…] C[…]” (Alfred E. Tiefenbacher (GmbH & Co. KG), priority 2019, dated 2020).

- time of peak plasma concentrations (administered in vivo): 1 to 2 h
- absolute bioavailability (in vivo): approximately 62%
- absorbed in the upper gastrointestinal tract (in vivo): approximately 85%
Compound: CN1CCc2nc(C(=O)N[C@@H]3C[C@@H](C(=O)N(C)C)CC[C@@H]3NC(=O)C(=O)Nc3ccc(Cl)cn3)sc2C1 [edoxaban, N'-(5-chloropyridin-2-yl)-N-[(1S,2R,4S)-4-(dimethylcarbamoyl)-2-[(5-methyl-6,7-dihydro-4H-[1,3]thiazolo[5,4-c]pyridine-2-carbonyl)amino]cyclohexyl]oxamide]
